Patent publication US20230129866A1 (PureTech LYT 100, Inc., priority 2020, published 2023)

Assays:
NASH mice = assay: Streptozotocin/high fat diet NASH mouse model: Sirius-red fibrosis area and NAFLD Activity Score; format: in vivo; settings: n = 8
From the text: Non-alcoholic steatohepatitis (NASH) is characterized by lobular inflammation, hepatocyte ballooning and degeneration progressing to liver fibrosis. […] In addition, nine non-NASH mice were fed with a normal diet and monitored.
While LYT-100 hepatocyte ballooning was similar to Vehicle, scores were lower for lobular inflammation and steatosis. (Table 6 and 7).

L929 cells [1] = assay: TGF-induced collagen synthesis in L929 cells, 6-wells (SIRCOL); format: cell-based; settings: 72 hrs, FIG. 4B
Procedure: 100,000 L929 cells were plated in complete DMEN and incubated until confluency for 3 days. Medium was removed and complete DMEM containg Prolin ([…]) and ascorbic acid (10 μM) was added. […] Cells were further incubated for 72 hrs. Supernatant was removed, cells were washed with cold PBS, 1 ml SIRCOL reagent was added onto the cells and cells were scraped off, samples were shaken for 5 h.at RT, centrifuged at 10.000 rpm for 5 min, supernatant was removed, pellet was dissolved in 0.5 M acetic acid to remove unbound dye, and re-centrifuged at 10.000 rpm for 5 min, supernatant was removed and final pelet was dissolved in 1 ml 0.5M NaOH, shaken at RT for 5 h, 100 μl of resulted solution was placed in 96-well and O.D was determined at 600.

LPS-induced plasma TNFα = assay: LPS-induced plasma TNF-α after oral pretreatment in rats; format: in vivo, Sprague-Dawley rats; settings: Mean ± St. Dev., n = 6-8; for Plasma TNFα concentrations 4 hours after LPS: vehicle 693 ± 553; for Plasma TNFα concentrations 1.5 hours after LPS: vehicle 75389 ± 29107
Procedure: (§1) LPS was diluted with sterile saline to […] and sonicated at 40° C. for 20 minutes to generate a stock solution and stored at 4° C. Each day of use, the stock solution was further diluted to 0.03 mg/mL in sterile saline.
(§2) Male Sprague-Dawley rats with indwelling femoral and jugular venous catheters (n=6-8 per dose and test article group) were used in this study. […] Sixty minutes after the oral dose, 0.03 mg/kg of LPS in 1 mL/kg saline was infused into the jugular vein.
(§3) Blood samples were collected from the femoral vein into heparin-coated syringes 15 minutes prior to the LPS infusion (45 minutes after oral doses of test article), 90 minutes after the LPS infusion and 4 hours after the LPS infusion. Plasma was prepared by centrifugation of the blood samples at 14,000 rpm for 10 minutes. Plasma samples were stored at −70 ° C. until analysis.

[2] = test system: ICAM-1; vascular hyperpermeability; TGF-β and downstream signaling; assay: Other studies for pirfenidone mechanisms in acute and chronic interstitial lung diseases
[3] = Phase 1 food effect study Part 2 (Cohort 5), single 500 mg dose fed vs fasted; format: in vivo, human; settings: LYT-100 @500 mg single dose
Procedure: The comparison will be based on Day 1, Day 2 and Day 3 PK plasma samples after the first dose of study drug on Day 1 under fast and fed conditions of Part 2.
Subjects will be admitted to the CRU on Day-1 and will fast overnight for at least 10 h.

[4] = In vitro comparative mass balance and metabolite studies in liver microsomes; format: in vitro ADME, human, rat, dog, mouse, monkey
From the text: Both LYT-100 and pirfenidone share a common major metabolite.

[5] = human, in vivo
Procedure: (§4) Up to 5 dosing cohorts are planned in Part 1.
(§5) Additional cohorts and intermediate doses may be selected in lieu of predefined doses as noted and in accordance with safety and tolerability responses, but doses will not exceed 1000 mg BID or a total daily dose of 2000 mg.
(§6) A standardised lunch will be served ≥4 h post breakfast and ≥4 h prior to dinner. An evening snack will be served ≥3 h following evening study medication administration. No additional fluids will be allowed during the 1 h pre- and post-doses. On Day 6, subjects will replicate mealtimes as scheduled on Day 1-5.
(§7) Plasma PK parameters (non-compartmental or compartmental analysis as appropriate) will include, but are not limited to: • Following single dose: Tmax, tlag, Cmax, AUC0-4, AUC0-last, t1/2, AUC0-inf, lambda z, %AUCext, CL/F, Vz/F, Cmax/D, AUC0-last/D, AUC0-inf/D and MRT (D is dose) • After repeated doses: Ctrough, Ctrough/D • Following repeated doses on last day: Tmax, Cmax, Cavg, tlag, t1/2, AUC0-4, AUC0-last; AUC0-inf, lambda z, %AUCext, CLss/F, Vzss/F, MRT, PTF, Rac(AUC), Rac(Cmax), Cmax/D, AUClast/D, AUC0-inf/D and Rae (accumulation ratio).

[6] = test system: Primary Mouse Lung Fibroblasts (PMLF); assay: Survival and TGF-β-induced proliferation of Primary Mouse Lung Fibroblasts (MTT); format: cell-based; settings: 500 μM, 72 hrs, FIG. 3A
Procedure: Primary Mouse lung fibroblast were prepared as follows. One lung was removed from 2 months old male BaIbC Mouse, perfused with sterile PBS, minced and incubated in 2 ml of serum free Dulbecco's Modified Eagle's Medium (DMEM) containing 100 μg/ml of collagenase I for one hour at 37° C. Each sample was centrifuged at 1500 r.p.m (revolution per minute) for 5 minutes, washed three times with PBS and the final cellular pellet was resuspended in DMEM supplemented with 10% serum and Pen/Strep, and incubated in 150 mm plates at 37 °C with 80% humidity and […]. The growth medium was removed and fresh medium was added every day for 10 days.
At the end of 10-day incubation period above, lung fibroblasts were confluent. […] One hundred μL of the growth medium was removed and 20 μL of MTT stock solution (prepared in PBS at 5.5 mg/ml concentration) was added and cells were incubated for 4 hours, then 100 μl of DMSO was added, and absorbance of developed color was monitored at 540-690 nm.

L929 cells [7] = assay: TGF-induced soluble collagen synthesis in L929 cells (ELISA); format: cell-based; settings: 500 μM, 72 hrs, FIG. 4D
Procedure: Five thousand L929 cells were plated in complete DMEN and incubated until confluency for 3 days.

[8] = Phase 1 multiple ascending dose (MAD) study Part 1, healthy volunteers (PK and safety); settings: 100 to 1000 mg BID, 5 days
Procedure: as §4, §5, §6, §7

LPS-induced plasma IL-6 = LPS-induced plasma IL-6 after oral pretreatment in rats; format: in vivo, Sprague-Dawley rats; settings: Mean ± St. Dev, n = 6-8; for Plasma IL-6 concentrations 4 hours after LPS: vehicle 13989 ± 6125; for Plasma IL-6 concentrations 1.5 hours after LPS: vehicle 40423 ± 8653
Procedure: as §1, §2, §3

[9] = 30 mg/kg oral pretreatment 1 hour prior to LPS injection
[10] = 100 mg/kg oral pretreatment 1 hour prior to LPS injection
[11] = 300 mg/kg oral pretreatment 1 hour prior to LPS injection

Which results are given for `[2H]C([2H])([2H])c1ccc(=O)n(-c2ccccc2)c1` [LYT-100, 5-(methyl-d3)-1-phenylpyridin-2-(1H)-one]?
Steatosis score 0: number of animals (NASH mice; NAS component, score 0 = <5%, LYT-100 30 mg/kg twice daily): 4; Steatosis score 1: number of animals (NASH mice; NAS component, score 1 = 5-33%, LYT-100 30 mg/kg twice daily): 3; Lobular Inflammation score 1: number of animals (NASH mice; NAS component, score 1 = <2 foci/200x, LYT-100 30 mg/kg twice daily): 5; Lobular Inflammation score 2: number of animals (NASH mice; NAS component, score 2 = 2-4 foci/200x, LYT-100 30 mg/kg twice daily): 3; Steatosis score 2: number of animals (NASH mice; NAS component, score 2 = >33%-66%, LYT-100 30 mg/kg twice daily): 1; Hepatocyte ballooning score 2: number of animals (NASH mice; NAS component, score 2 = Many cells/prominent ballooning, LYT-100 30 mg/kg twice daily): 8; Fibrosis Area (%) (mean ± SD) (NASH mice; Sirius-red stained liver sections, LYT-100 30 mg/kg orally twice daily from 6-9 weeks of age, p < 0.01 vs Vehicle (1.02 ± 0.20)): 0.64 ± 0.31 %; Effect on TGF-induced collagen synthesis (L929 cells [1]; 500 μM 1 hour prior to TGF-β 5 ng/ml): inhibits; Effect on collagen synthesis in the absence of added TGF-β (L929 cells [1]; 500 μM): significantly inhibits; Plasma TNFα concentrations 4 hours after LPS (LPS-induced plasma TNFα; [9]): 274 ± 95 pg/mL; Plasma TNFα concentrations 1.5 hours after LPS (LPS-induced plasma TNFα; [9]): 46382 ± 23254 pg/mL; Plasma TNFα concentrations 4 hours after LPS (LPS-induced plasma TNFα; [10]): 129 ± 65 pg/mL; Plasma TNFα concentrations 1.5 hours after LPS (LPS-induced plasma TNFα; [10]): 6403 ± 4812 pg/mL; Plasma TNFα concentrations 4 hours after LPS (LPS-induced plasma TNFα; [11]): 79 ± 46 pg/mL; Plasma TNFα concentrations 1.5 hours after LPS (LPS-induced plasma TNFα; [11]): 3162 ± 2668 pg/mL; Effect on ICAM-1 [2]: downregulates; Effect on TGF-β and downstream signaling [2]: suppresses; Effect on vascular hyperpermeability [2]: reduces; AUC, % Change Fed vs Fasted [3]: −19%; Cmax, % Change Fed vs Fasted [3]: −23%; Tmax, % Change Fed vs Fasted [3]: +25%; Novel metabolites through deuteration ([4]; human, rat, dog, mouse, and monkey liver microsomes): did not introduce novel; Rate of metabolism compared with pirfenidone ([4]; liver microsomes): occurred more slowly; Dose dependence of AUC96-108 across all dose Cohorts [5]: linear dose proportionality; Dose limiting toxicities [5]: no dose limiting toxicities observed; Grading of adverse events [5]: mild and transient; AEs considered possibly related to treatment ([5]; 5 days): 33; Most common AE, headache: subjects ([5]; 5 days): 25%; Subjects who experienced adverse events ([5]; 5 days): 33 subjects; Total adverse events (AEs) ([5]; 5 days): 72; Effect on survival of PMLF alone [6]: did not affect the survival; Effect on soluble collagen levels in the absence of TGF-β-induction (L929 cells [7]): signficantly reduced; Effect on TGF-β-induced soluble collagen levels (L929 cells [7]; TGF-β 5 ng/ml): significantly inhibits; Maximally tolerated dose [8]: no maximally tolerated dose was reached; Plasma IL-6 concentrations 4 hours after LPS (LPS-induced plasma IL-6; [9]): 8174 ± 5504 pg/mL; Plasma IL-6 concentrations 1.5 hours after LPS (LPS-induced plasma IL-6; [9]): 18197 ± 6484 pg/mL; Plasma IL-6 concentrations 4 hours after LPS (LPS-induced plasma IL-6; [10]): 4632 ± 5930 pg/mL; Plasma IL-6 concentrations 1.5 hours after LPS (LPS-induced plasma IL-6; [10]): 21642 ± 17174 pg/mL; Plasma IL-6 concentrations 4 hours after LPS (LPS-induced plasma IL-6; [11]): 1550 ± 1414 pg/mL; Plasma IL-6 concentrations 1.5 hours after LPS (LPS-induced plasma IL-6; [11]): 13519 ± 8674 pg/mL
